Experimental data reported in ChEMBL document CHEMBL3804767, “Discovery and Preclinical Evaluation of BMS-955829, a Potent Positive Allosteric Modulator of mGluR5” (ACS Med Chem Lett, 2016).
The source made the active and inactive calls. No cut-off for these calls is given here.

What was measured:
[1] = test system: Mus musculus; assay: Toxicity in C57/BL6 mouse assessed as death at 3 mg/kg, ip; format: organism-based; conditions: in vivo
[2] = test system: Mus musculus; assay: Neurotoxicity in C57/BL6 mouse assessed as induction of convulsion at 3 mg/kg, ip; format: toxicity, organism-based; conditions: in vivo
[3] = Protein binding in plasma (unknown origin); format: ADME, cell-free; conditions: read-out: PPB (converted)
[4] = test system: Mus musculus; assay: Neurotoxicity in C57/BL6 mouse assessed as induction of convulsion at 10 mg/kg, ip coadministered with (4R,5R)-5-Phenyl-4-(4-(phenylethynyl)pyridin-2-yl)oxazolidin-2-one; format: toxicity, organism-based; conditions: in vivo
[5] = target: T1, Metabotropic glutamate receptor 5 (Homo sapiens, UniProt P41594)
Description: Positive allosteric modulation of human mGlu5A receptor expressed in HEK293 cells coexpressing rat glutamate-aspartate transporter assessed as potentiation of L-glutamate-induced Ca2+ signal incubated for 60 mins by calcium 4 dye based FLIPR assay

[6] = target: T1, Metabotropic glutamate receptor 5; remark: listed apart in the source
Description: Displacement of [3H]MPEPgamma in mGlu5 receptor (unknown origin) incubated for 60 mins by liquid scintillation counting method

[7] = test system: Mus musculus; assay: Neurotoxicity in C57/BL6 mouse assessed as induction of convulsion at 10 mg/kg, ip; format: toxicity, organism-based; conditions: in vivo
[8] = target: Metabotropic glutamate receptor 5 (Rattus norvegicus, UniProt P31424); assay: Agonist activity at mGlu5A receptor in primary rat cortical astrocytes; format: cell-based
[9] = target: Metabotropic glutamate receptor 1 (Homo sapiens) (UniProt Q13255); assay: Positive allosteric modulation of mGlu1 receptor (unknown origin)
[10] = test system: Canis familiaris; assay: Toxicity in dog administered as repeated dosage for 5 days; format: organism-based, Canis lupus familiaris; conditions: in vivo, 120 h
[11] = test system: Plasma; assay: Total plasma concentration in Sprague-Dawley rat at 0.1 mg/kg, sc; format: ADME, organism-based; conditions: in vivo
[12] = AUC (0 to 24 hrs) in rat at 100 mg/kg, po measured on day1; format: ADME, organism-based; set-up: time < 24 hr, dose 100 mg/kg, route oral; conditions: in vivo
[13] = Ratio of drug level in brain to plasma in rat at 1 mg/kg, iv; format: ADME, organism-based; conditions: read-out: BPR
[14] = target: Metabotropic glutamate receptor 4 (Homo sapiens) (UniProt Q14833); assay: Negative allosteric modulation of mGlu4 receptor (unknown origin)
[15] = Cmax in rat at 100 mg/kg, po measured on day1; format: ADME, organism-based; set-up: dose 100 mg/kg, route oral; conditions: in vivo
[16] = target: Metabotropic glutamate receptor 2 (Homo sapiens) (UniProt Q14416); assay: Agonist activity at mGlu2 receptor (unknown origin)
[17] = target: Metabotropic glutamate receptor 7 (Homo sapiens) (UniProt Q14831); assay: Negative allosteric modulation of mGlu7 receptor (unknown origin)
[18] = test system: Rattus norvegicus; assay: Neurotoxicity in rat assessed as neuronal necrosis in brain hippocampal slice at 100 mg/kg/day, po for 8 days by haematoxylin and eosin staining based assay; format: toxicity, organism-based; conditions: in vivo, 192 h
[19] = Volume of distribution at steady state in rat at 1 mg/kg, iv; format: ADME, organism-based; conditions: in vivo, read-out: Vdss
[20] = target: Metabotropic glutamate receptor 4 (Homo sapiens) (UniProt Q14833); assay: Positive allosteric modulation of mGlu4 receptor (unknown origin)
[21] = target: Metabotropic glutamate receptor 2 (Homo sapiens) (UniProt Q14416); assay: Negative allosteric modulation of mGlu2 receptor (unknown origin)
[22] = target: Metabotropic glutamate receptor 7 (Homo sapiens) (UniProt Q14831); assay: Agonist activity at mGlu7 receptor (unknown origin)
[23] = test system: Mus musculus; assay: Receptor occupancy of mGlu5 receptor in mouse at 0.3 mg/kg, sc relative to control; format: functional
[24] = target: Metabotropic glutamate receptor 3 (Homo sapiens) (UniProt Q14832); assay: Positive allosteric modulation of mGlu3 receptor (unknown origin)
[25] = target: Metabotropic glutamate receptor 6 (Homo sapiens) (UniProt O15303); assay: Negative allosteric modulation of mGlu6 receptor (unknown origin)
[26] = Clearance in rat at 1 mg/kg, iv; format: ADME, organism-based; conditions: in vivo
[27] = target: Metabotropic glutamate receptor 2 (Homo sapiens) (UniProt Q14416); assay: Positive allosteric modulation of mGlu2 receptor (unknown origin)
[28] = Inhibition of human recombinant CYP450; format: ADME
[29] = target: Metabotropic glutamate receptor 1 (Homo sapiens) (UniProt Q13255); assay: Negative allosteric modulation of mGlu1 receptor (unknown origin)
[30] = test system: Salmonella typhimurium; assay: Mutagenicity in Salmonella typhimurium by Ames test in presence of s9 liver fraction; format: toxicity, organism-based; conditions: salmonella enterica subsp. enterica serovar typhimurium
[31] = target: T2, Progesterone receptor (Homo sapiens, UniProt P06401); assay: Inhibition of progesterone receptor (unknown origin)
T2 sequence (P06401 whole entry): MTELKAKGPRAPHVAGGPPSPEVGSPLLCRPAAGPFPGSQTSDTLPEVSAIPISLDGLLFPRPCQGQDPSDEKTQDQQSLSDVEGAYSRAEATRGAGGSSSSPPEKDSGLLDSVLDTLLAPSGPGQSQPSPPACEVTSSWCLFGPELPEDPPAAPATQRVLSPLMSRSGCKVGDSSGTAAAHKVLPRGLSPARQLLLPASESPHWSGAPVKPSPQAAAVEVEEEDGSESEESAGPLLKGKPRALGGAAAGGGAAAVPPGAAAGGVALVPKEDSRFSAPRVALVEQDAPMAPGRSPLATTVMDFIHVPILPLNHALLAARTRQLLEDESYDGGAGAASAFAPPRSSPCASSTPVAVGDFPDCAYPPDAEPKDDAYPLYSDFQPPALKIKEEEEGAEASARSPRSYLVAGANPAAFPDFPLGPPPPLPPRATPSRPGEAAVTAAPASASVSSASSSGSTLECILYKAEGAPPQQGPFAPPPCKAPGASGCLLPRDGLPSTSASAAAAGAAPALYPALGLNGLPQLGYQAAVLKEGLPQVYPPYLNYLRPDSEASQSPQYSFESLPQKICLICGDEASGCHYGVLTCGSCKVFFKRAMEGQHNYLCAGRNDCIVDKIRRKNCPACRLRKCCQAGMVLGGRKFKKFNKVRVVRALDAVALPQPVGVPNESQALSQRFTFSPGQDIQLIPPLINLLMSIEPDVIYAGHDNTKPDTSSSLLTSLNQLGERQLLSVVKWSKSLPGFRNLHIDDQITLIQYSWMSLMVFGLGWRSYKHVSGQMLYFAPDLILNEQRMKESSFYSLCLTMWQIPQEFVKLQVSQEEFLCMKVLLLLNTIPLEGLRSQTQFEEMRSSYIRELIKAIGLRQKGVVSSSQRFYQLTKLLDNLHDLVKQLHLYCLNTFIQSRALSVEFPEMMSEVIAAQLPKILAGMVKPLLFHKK

[32] = Oral bioavailability in cynomolgus monkey at 1 mg/kg; format: ADME, organism-based, Macaca fascicularis; conditions: in vivo
[33] = test system: Rattus norvegicus; assay: Toxicity in rat administered as repeated dosage for 2 weeks; format: organism-based; conditions: in vivo, 336 h
[34] = target: T3, Progesterone receptor (Homo sapiens) (UniProt P06401); assay: Antagonist activity at progesterone receptor (unknown origin)
T3 sequence (whole entry): T2 sequence (P06401 whole entry)

[35] = test system: Brain; assay: Total drug level in Sprague-Dawley rat brain at 0.1 mg/kg, sc; format: ADME, organism-based; conditions: in vivo, read-out: Drug uptake
[36] = target: Metabotropic glutamate receptor 1 (Homo sapiens) (UniProt Q13255); assay: Agonist activity at mGlu1 receptor (unknown origin)
[37] = Oral bioavailability in dog at 1 mg/kg; format: ADME, organism-based, Canis lupus familiaris; conditions: in vivo
[38] = test system: Mus musculus; assay: Cognitive enhancement effect in mouse assessed as reduction in time spent with familiar object in retention session at 0.3 to 3 mg/kg, sc treated for 60 mins prior to acquisition session measured after 24 hrs for 10 mins by novel object recognition assay; format: functional; conditions: read-out: MED
[39] = species on record: Homo sapiens; assay: Inhibition of sodium channel (unknown origin) at 10 uM by patch clamp method relative to control
[40] = target: Voltage-gated inwardly rectifying potassium channel KCNH2 (Homo sapiens, UniProt Q12809); assay: Inhibition of human ERG by patch clamp method
[41] = test system: Salmonella typhimurium; assay: Mutagenicity in Salmonella typhimurium by Ames test; format: toxicity, organism-based; conditions: salmonella enterica subsp. enterica serovar typhimurium
[42] = target: Metabotropic glutamate receptor 3 (Homo sapiens) (UniProt Q14832); assay: Negative allosteric modulation of mGlu3 receptor (unknown origin)
[43] = Oral bioavailability in rat at 1 mg/kg; format: ADME, organism-based; conditions: in vivo
[44] = target: Metabotropic glutamate receptor 8 (Homo sapiens) (UniProt O00222); assay: Positive allosteric modulation of mGlu8 receptor (unknown origin)
[45] = target: Metabotropic glutamate receptor 4 (Homo sapiens) (UniProt Q14833); assay: Agonist activity at mGlu4 receptor (unknown origin)
[46] = test system: Rattus norvegicus; assay: Neurotoxicity in rat assessed as neuronal necrosis in brain auditory complex at 100 mg/kg/day, po for 8 days by haematoxylin and eosin staining based assay; format: toxicity, organism-based; conditions: in vivo, 192 h
[47] = target: Metabotropic glutamate receptor 7 (Homo sapiens) (UniProt Q14831); assay: Positive allosteric modulation of mGlu7 receptor (unknown origin)
[48] = test system: Rattus norvegicus; assay: Reversal of NMDA antagonist MK-801-induced deficits in set shift performance in Sprague-Dawley rat assessed as reduction in number of trial required to achieve 8 consecutive correct selection at 0.1 to 3 mg/kg, sc pretreated for 25 mins followed by MK-801 injection measured after 35 mins by wisconsin card sorting test; format: functional; conditions: read-out: MED
[49] = test system: Mus musculus; assay: Ex vivo receptor occupancy of mGlu5 receptor in C57/BL6 mouse at 10 to 30 mg/kg, ip relative to control; format: functional
[50] = target: Metabotropic glutamate receptor 6 (Homo sapiens) (UniProt O15303); assay: Agonist activity at mGlu6 receptor (unknown origin)
[51] = test system: Mus musculus; assay: Neurotoxicity in C57/BL6 mouse assessed as induction of convulsion at 30 mg/kg, ip; format: toxicity, organism-based; conditions: in vivo
[52] = test system: Brain; assay: Total drug level in mouse brain at 0.3 mg/kg, sc; format: ADME, organism-based; conditions: in vivo, read-out: Drug uptake
[53] = test system: Plasma; assay: Total plasma concentration in mouse at 0.3 mg/kg, sc; format: ADME, organism-based; conditions: in vivo
[54] = test system: Rattus norvegicus; assay: Receptor occupancy of mGlu5 receptor in Sprague-Dawley rat at 0.1 mg/kg, sc relative to control; format: functional
[55] = target: T3, Progesterone receptor (Homo sapiens); assay: Agonist activity at progesterone receptor (unknown origin)
[56] = target: Metabotropic glutamate receptor 8 (Homo sapiens) (UniProt O00222); assay: Agonist activity at mGlu8 receptor (unknown origin)
[57] = target: Metabotropic glutamate receptor 3 (Homo sapiens) (UniProt Q14832); assay: Agonist activity at mGlu3 receptor (unknown origin)
[58] = target: Metabotropic glutamate receptor 8 (Homo sapiens) (UniProt O00222); assay: Negative allosteric modulation of mGlu8 receptor (unknown origin)
[59] = target: Metabotropic glutamate receptor 6 (Homo sapiens) (UniProt O15303); assay: Positive allosteric modulation of mGlu6 receptor (unknown origin)

Chain of Metabotropic glutamate receptor 4 (Homo sapiens) (Q14833 whole entry): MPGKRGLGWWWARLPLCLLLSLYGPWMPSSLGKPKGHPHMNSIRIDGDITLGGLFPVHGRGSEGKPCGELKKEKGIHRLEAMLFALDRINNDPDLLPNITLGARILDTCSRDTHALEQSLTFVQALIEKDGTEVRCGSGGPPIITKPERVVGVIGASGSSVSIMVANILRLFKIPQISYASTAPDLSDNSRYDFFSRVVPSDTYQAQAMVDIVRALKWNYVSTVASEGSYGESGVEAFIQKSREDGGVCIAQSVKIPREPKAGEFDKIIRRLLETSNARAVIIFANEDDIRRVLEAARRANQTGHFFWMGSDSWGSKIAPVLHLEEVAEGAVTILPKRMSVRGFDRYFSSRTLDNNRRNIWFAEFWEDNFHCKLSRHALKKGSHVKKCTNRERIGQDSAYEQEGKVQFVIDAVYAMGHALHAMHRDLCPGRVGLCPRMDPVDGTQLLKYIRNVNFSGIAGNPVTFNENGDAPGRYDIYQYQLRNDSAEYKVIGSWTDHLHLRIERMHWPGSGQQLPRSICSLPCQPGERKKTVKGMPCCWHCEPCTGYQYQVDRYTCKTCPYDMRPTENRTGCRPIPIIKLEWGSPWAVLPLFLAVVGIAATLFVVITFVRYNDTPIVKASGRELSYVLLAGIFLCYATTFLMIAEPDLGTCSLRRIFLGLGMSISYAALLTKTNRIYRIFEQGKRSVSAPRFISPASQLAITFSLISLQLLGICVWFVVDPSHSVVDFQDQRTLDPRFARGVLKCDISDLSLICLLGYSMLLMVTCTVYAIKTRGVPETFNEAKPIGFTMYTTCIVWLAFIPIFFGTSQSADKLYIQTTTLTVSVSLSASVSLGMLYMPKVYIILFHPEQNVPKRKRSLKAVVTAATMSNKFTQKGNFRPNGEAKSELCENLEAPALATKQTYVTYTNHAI
Chain of Metabotropic glutamate receptor 6 (Homo sapiens) (O15303 whole entry): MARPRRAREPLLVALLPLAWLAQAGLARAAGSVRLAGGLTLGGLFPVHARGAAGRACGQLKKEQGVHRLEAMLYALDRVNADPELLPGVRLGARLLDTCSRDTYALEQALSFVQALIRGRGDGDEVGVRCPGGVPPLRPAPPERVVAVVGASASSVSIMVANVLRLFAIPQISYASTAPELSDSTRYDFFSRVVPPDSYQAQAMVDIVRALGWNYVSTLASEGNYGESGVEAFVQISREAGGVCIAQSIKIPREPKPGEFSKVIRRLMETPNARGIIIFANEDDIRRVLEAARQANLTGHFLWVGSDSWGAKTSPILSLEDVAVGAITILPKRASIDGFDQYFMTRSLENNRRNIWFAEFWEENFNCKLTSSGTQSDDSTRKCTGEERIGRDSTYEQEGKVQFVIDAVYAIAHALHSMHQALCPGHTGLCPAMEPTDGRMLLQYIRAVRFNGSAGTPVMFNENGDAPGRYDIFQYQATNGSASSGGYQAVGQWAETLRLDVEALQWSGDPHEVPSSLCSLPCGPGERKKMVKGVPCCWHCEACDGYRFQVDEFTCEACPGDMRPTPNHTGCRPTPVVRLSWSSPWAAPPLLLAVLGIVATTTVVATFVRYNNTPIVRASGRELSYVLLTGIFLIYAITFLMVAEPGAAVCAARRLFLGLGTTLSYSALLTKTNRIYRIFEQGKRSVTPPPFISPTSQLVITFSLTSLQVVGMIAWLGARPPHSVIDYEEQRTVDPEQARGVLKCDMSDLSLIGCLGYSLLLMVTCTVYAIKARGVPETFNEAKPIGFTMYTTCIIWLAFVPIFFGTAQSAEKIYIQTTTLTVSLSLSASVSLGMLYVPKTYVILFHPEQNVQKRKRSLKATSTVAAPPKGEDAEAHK
Chain of Metabotropic glutamate receptor 7 (Homo sapiens) (Q14831 whole entry): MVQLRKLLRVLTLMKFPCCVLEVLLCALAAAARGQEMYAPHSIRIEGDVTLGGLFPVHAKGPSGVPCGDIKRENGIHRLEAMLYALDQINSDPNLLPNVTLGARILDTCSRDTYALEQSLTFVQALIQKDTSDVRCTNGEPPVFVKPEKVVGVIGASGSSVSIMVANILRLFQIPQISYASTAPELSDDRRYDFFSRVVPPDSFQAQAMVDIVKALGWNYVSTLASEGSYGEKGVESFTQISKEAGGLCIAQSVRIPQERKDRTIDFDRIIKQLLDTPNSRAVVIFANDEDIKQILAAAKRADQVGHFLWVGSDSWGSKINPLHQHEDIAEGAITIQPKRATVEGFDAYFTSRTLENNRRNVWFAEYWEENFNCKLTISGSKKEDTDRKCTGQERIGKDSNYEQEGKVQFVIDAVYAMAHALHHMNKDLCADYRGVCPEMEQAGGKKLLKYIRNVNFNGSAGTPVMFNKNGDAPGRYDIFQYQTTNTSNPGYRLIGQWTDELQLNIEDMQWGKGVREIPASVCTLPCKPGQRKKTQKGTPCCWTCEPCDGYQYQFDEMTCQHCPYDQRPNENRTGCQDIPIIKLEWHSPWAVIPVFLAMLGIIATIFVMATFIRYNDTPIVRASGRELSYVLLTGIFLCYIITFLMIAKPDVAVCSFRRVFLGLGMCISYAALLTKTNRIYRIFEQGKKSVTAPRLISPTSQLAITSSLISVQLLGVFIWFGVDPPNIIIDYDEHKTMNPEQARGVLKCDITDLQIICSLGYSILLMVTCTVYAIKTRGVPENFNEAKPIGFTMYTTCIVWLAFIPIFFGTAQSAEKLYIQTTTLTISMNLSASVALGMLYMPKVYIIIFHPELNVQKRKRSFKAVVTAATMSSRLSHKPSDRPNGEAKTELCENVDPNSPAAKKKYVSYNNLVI
Chain of Metabotropic glutamate receptor 8 (Homo sapiens) (O00222 whole entry): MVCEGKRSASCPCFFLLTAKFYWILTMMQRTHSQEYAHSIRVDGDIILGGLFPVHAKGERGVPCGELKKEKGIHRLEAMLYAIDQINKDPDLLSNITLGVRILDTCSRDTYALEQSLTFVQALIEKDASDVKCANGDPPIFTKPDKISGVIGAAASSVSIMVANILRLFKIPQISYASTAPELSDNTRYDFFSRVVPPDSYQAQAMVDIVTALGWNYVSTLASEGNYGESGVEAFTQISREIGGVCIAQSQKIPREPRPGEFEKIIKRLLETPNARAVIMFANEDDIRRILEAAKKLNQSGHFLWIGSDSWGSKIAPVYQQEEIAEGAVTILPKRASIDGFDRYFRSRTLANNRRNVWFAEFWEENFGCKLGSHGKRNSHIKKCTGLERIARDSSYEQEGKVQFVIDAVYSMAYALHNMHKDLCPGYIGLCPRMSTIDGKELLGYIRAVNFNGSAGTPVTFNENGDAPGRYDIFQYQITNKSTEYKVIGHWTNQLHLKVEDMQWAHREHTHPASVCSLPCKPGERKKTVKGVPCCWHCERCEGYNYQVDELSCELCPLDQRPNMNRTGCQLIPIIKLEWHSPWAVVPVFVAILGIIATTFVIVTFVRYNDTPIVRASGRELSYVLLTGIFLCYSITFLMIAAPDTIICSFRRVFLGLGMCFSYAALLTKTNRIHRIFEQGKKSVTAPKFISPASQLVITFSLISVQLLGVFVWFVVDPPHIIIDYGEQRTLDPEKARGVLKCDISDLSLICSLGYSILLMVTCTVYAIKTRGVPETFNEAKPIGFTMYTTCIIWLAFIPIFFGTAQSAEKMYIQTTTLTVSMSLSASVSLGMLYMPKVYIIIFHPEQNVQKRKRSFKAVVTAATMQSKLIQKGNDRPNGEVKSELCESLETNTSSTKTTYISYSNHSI
Chain of Metabotropic glutamate receptor 1 (Homo sapiens) (Q13255 19-1194 limits assumed): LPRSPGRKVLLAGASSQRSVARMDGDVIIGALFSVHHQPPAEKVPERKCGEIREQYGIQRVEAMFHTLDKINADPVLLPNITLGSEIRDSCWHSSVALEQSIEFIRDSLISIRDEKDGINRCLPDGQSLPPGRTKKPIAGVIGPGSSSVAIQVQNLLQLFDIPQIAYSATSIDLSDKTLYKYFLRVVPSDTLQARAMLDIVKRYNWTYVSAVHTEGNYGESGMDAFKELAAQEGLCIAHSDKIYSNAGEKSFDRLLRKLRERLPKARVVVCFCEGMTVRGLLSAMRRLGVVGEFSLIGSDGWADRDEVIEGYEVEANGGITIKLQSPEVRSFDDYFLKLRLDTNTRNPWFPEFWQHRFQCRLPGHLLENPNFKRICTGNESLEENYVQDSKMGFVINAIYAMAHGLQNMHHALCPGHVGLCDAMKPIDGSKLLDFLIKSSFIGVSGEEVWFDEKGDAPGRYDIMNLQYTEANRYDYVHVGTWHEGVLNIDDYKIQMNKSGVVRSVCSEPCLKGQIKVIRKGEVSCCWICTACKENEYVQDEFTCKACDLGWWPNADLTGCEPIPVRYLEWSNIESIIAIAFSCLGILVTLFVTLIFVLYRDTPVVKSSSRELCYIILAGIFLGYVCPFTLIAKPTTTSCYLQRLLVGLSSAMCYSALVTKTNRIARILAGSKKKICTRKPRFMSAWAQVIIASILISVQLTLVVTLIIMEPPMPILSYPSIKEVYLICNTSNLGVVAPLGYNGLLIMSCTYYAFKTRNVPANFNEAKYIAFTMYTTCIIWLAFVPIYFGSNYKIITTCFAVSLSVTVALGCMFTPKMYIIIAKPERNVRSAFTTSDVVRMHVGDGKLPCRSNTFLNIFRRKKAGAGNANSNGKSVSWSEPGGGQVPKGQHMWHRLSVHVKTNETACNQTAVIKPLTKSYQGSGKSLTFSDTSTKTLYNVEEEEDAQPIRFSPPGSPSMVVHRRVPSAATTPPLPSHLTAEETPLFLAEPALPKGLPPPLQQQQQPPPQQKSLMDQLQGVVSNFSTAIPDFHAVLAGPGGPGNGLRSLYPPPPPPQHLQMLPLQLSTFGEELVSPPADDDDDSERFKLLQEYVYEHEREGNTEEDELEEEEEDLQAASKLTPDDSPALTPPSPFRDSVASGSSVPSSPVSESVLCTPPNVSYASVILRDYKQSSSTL

## O=C1N[C@H](c2cncc(C#Cc3ccccc3)c2)[C@@H](c2cccc(F)c2)O1
[1]
  Activity: Toxic
[2]
  Activity: Toxic
[3]
  fraction unbound: 0.004

## O=C1N[C@H](c2cncc(C#Cc3cncc(F)c3)c2)[C@@H](c2ccc(F)cc2)O1
[4]
  Activity: Non-toxic
[5]
  EC50: 6 nM
[6]
  Ki: 25 nM
[3]
  fraction unbound: 0.035
[7]
  Activity: Toxic
[8]
  EC50: 310 nM

## O=C1N[C@H](c2cncc(C#Cc3ccccc3)c2)[C@@H](c2cc(F)ccc2F)O1
[9]
  Activity: > 10 µM
[10]
  Activity: Non-toxic
[11]
  concentration: 34 nM
[12]
  AUC(0-t) at 24 h: 751 µM·h
[13]
  Kp: 1
[14]
  Activity: > 10 µM
[15]
  Cmax: 41000 nM
[16]
  Activity: > 10 µM
[17]
  Activity: > 10 µM
[18]
  Activity: Non-toxic
[19]
  Vd: 1.8 L/kg
[20]
  Activity: > 10 µM
[21]
  Activity: > 10 µM
[22]
  Activity: > 10 µM
[23]
  Occ: 18%
[24]
  Activity: > 10 µM
[25]
  Activity: > 10 µM
[26]
  clearance: 11 mL/min/kg
[27]
  Activity: > 10 µM
[28]
  IC50: ≥ 1300 nM
[29]
  Activity: > 10 µM
[30]
  Activity: Non-toxic
[31]
  IC50: 2300 nM
[32]
  bioavailability: 50%
[33]
  Activity: Non-toxic
[34]
  inhibition: inactive
[35]
  concentration: 34 nM
[36]
  Activity: > 10 µM
[3]
  fraction unbound: 0.007
[37]
  bioavailability: 68%
[38]
  minimal effective dose: 0.3 mg/kg
[39]
  inhibition: 40%
[40]
  IC50: 3600 nM
[41]
  Activity: Non-toxic
[42]
  Activity: > 10 µM
[43]
  bioavailability: 100%
[44]
  Activity: > 10 µM
[45]
  Activity: > 10 µM
[46]
  Activity: Non-toxic
[47]
  Activity: > 10 µM
[48]
  minimal effective dose: 0.1 mg/kg
[49]
  Occ: 94%
[50]
  Activity: > 10 µM
[51]
  Activity: Non-toxic
[52]
  concentration: 178 nM
[53]
  concentration: 116 nM
[54]
  Occ: 19%
[55]
  Activity: inactive
[56]
  Activity: > 10 µM
[57]
  Activity: > 10 µM
[58]
  Activity: > 10 µM
[59]
  Activity: > 10 µM
